According to ChEMBL document CHEMBL1201862, “PubChem BioAssay data set” (2004):
Active and inactive are the calls of the source.

How the values were obtained:
[1] = target: T1, Dual specificity protein phosphatase 3 (Homo sapiens, UniProt P51452); assay: SAR VHR1 absorbance Assay for In Vitro dose response studies. [Related pubchem assays (depositor defined):AID1654, AID1661, AID1878, AID1992, AID2004]
[2] = target: T1, Dual specificity protein phosphatase 3; assay: SAR VHR1 Fluorescent Assay for In Vitro dose response studies. [Related pubchem assays (depositor defined):AID1654, AID1661, AID1878, AID1992, AID2004, AID2070, AID2085]; type: functional
[3] = target: T1, Dual specificity protein phosphatase 3; assay: SAR VHR1 Fluorescent Assay for In Vitro dose response studies Set 2. [Related pubchem assays (depositor defined):AID1654, AID1661, AID1878]; type: functional
Vero = assay: viability of Vero cells under compound – cytotoxicity control for flavivirus capping enzyme inhibitors (AID 588742); type: functional; conditions: Chlorocebus sabaeus
[4] = target: T2, Dual specificity protein phosphatase 6 (Rattus norvegicus, UniProt Q64346); type: functional;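 also: confirmatory in vitro dose-response testing of MKP-3 inhibition; recombinant His-tagged MKP-3 made in E. coli BL21 with OMFP substrate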
T2 sequence (Q64346 whole entry): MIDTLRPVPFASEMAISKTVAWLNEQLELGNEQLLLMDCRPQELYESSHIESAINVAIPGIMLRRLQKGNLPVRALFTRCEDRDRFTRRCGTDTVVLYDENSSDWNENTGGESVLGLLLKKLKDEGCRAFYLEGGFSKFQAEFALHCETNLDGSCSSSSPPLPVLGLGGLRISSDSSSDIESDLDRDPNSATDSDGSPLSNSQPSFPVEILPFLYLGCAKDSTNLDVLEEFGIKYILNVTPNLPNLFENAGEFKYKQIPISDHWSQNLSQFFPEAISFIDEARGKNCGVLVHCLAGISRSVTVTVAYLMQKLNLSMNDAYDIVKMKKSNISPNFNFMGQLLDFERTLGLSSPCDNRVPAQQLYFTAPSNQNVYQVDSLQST

[5] = target: T3, Probable nicotinate-nucleotide adenylyltransferase (Staphylococcus aureus (strain N315), UniProt P65502); type: functional, Staphylococcus aureus subsp. aureus N315;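 as to IC50 Mean: confirmatory dose-response retesting of NadD inhibitor hits first found in an ultra-high-throughput screen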
T3 sequence (P65502 whole entry): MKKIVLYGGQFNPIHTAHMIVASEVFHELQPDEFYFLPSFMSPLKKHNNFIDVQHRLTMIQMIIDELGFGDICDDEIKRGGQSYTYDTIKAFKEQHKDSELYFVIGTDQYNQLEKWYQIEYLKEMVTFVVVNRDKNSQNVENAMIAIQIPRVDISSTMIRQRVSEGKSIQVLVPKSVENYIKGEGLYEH

[6] = target: T3, Probable nicotinate-nucleotide adenylyltransferase; type: functional, Staphylococcus aureus subsp. aureus N315; conditions: read-out: IC50_Mean
Fatty acid synthase [7] = target: T4, Fatty acid synthase (Homo sapiens, UniProt P49327); assay: inhibition of human FAS-TE enzyme activity – biochemical, endpoint fluorescence intensity, uHTS hits, dose response (AID 624327); type: functional;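 also: fluorescence from hydrolysis of an O-methyl fluorescein acyl ester substrate by the enzyme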
T4 sequence (P49327 whole entry): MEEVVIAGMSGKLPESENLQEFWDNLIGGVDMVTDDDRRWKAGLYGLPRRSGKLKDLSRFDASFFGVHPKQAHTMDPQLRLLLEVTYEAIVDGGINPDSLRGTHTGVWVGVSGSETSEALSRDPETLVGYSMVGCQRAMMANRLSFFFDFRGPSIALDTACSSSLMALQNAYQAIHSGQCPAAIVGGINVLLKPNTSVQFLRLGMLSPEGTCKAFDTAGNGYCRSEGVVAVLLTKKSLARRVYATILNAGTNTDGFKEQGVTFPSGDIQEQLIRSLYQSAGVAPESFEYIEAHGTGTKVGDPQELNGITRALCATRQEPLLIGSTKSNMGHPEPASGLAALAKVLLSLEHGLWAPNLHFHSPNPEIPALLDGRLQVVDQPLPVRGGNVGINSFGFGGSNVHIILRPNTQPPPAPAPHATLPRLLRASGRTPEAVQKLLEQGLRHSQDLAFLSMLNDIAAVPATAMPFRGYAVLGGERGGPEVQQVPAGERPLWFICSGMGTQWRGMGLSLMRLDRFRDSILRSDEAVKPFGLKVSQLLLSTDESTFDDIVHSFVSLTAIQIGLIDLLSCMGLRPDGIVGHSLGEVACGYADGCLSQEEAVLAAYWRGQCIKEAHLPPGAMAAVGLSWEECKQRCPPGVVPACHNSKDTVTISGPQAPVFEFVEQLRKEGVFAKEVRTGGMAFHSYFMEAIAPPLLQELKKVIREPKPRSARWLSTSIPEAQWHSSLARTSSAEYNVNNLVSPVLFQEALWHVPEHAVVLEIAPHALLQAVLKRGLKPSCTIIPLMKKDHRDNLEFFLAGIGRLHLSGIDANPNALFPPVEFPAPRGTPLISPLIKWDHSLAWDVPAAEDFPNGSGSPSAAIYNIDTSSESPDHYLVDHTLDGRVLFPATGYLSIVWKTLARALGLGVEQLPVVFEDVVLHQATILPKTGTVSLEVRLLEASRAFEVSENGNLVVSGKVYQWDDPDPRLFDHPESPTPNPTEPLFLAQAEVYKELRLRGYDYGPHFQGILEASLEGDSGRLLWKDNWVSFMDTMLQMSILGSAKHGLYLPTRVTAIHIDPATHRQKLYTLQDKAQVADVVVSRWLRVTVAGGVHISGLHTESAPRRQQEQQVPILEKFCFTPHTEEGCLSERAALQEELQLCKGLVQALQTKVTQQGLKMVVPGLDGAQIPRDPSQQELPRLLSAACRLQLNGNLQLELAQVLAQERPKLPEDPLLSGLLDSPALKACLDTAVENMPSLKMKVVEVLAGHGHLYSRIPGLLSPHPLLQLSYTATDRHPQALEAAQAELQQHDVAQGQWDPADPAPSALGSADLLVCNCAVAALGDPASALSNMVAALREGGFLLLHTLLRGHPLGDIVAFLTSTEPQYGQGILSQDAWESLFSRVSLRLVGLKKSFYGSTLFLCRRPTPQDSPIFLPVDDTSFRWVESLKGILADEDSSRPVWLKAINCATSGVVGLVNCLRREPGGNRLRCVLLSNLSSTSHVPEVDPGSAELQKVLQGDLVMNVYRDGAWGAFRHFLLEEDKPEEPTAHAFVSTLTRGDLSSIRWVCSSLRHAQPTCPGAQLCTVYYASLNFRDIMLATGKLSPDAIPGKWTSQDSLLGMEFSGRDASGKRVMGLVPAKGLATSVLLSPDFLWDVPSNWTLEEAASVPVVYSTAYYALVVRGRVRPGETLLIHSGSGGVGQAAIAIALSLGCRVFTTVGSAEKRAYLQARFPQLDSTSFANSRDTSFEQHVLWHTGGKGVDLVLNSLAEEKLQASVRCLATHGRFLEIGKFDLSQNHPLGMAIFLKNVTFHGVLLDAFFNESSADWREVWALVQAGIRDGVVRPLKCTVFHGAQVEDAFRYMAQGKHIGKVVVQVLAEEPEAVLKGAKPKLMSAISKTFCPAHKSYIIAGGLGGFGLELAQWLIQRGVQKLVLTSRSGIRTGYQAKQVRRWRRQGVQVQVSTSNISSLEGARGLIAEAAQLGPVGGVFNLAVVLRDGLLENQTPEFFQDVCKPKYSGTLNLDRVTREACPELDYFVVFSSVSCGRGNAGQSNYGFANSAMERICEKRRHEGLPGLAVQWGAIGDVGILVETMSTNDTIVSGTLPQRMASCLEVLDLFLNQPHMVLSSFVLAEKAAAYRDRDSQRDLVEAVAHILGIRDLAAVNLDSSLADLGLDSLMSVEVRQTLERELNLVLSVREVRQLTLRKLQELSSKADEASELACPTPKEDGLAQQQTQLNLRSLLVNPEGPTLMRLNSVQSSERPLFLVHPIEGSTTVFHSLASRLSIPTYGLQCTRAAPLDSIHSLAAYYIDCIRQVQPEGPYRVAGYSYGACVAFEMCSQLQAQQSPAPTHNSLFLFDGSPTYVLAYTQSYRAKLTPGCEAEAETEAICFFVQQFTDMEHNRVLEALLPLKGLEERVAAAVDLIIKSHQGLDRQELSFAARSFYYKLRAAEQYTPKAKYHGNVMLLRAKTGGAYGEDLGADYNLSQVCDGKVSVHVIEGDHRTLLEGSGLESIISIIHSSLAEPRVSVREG

Fatty acid synthase [8] = target: T4, Fatty acid synthase; assay: inhibition of human FAS-TE enzyme activity – biochemical, kinetic fluorescence intensity, dose response (AID 624326); type: functional;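 also: rate of fluorescence rise from hydrolysis of a fluorogenic O-methyl fluorescein ester substrate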
[9] = target: Glucose-6-phosphate 1-dehydrogenase (Homo sapiens, UniProt P11413); assay: inhibition of Homo sapiens G6PD, dose series – biochemical, fluorescence, selectivity assay for P. falciparum G6PD inhibitor project, dose response (AID 504792); type: functional
[10] = target: T5, Replicative DNA helicase DnaB (Mycobacterium tuberculosis, UniProt P9WMR3); assay: DnaB intein splicing inhibitors, dose response, biochemical, cell-free fluorescence (AID 449749); type: functional
T5 sequence (P9WMR3 whole entry): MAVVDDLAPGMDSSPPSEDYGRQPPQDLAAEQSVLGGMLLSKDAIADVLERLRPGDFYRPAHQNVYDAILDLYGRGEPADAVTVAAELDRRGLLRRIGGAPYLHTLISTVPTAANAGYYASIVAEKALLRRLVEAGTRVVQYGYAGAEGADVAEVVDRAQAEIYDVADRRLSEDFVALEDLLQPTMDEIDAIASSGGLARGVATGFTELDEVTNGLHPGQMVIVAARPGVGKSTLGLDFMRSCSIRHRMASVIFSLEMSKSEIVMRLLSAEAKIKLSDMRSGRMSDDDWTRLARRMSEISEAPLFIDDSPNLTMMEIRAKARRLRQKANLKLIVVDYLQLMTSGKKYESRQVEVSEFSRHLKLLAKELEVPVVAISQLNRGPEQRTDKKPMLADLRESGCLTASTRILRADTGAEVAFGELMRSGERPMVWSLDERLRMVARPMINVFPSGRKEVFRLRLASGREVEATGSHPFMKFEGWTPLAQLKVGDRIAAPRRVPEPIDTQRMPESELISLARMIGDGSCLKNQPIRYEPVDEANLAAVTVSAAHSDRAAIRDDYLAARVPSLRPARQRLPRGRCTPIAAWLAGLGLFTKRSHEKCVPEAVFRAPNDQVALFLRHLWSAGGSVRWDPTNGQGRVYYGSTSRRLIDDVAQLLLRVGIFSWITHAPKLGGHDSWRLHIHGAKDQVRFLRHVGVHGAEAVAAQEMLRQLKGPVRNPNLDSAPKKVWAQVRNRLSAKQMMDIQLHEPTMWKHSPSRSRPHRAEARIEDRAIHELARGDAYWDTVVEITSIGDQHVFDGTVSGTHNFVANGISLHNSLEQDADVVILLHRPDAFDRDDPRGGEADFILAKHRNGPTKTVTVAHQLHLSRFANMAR

[11] = target: T6, Apoptotic protease-activating factor 1 (Homo sapiens, UniProt O14727); assay: activation of Apaf-1 mediated apoptosis – fluorescent, uHTS hits, dose response (AID 588554); type: functional
T6 sequence (O14727 whole entry): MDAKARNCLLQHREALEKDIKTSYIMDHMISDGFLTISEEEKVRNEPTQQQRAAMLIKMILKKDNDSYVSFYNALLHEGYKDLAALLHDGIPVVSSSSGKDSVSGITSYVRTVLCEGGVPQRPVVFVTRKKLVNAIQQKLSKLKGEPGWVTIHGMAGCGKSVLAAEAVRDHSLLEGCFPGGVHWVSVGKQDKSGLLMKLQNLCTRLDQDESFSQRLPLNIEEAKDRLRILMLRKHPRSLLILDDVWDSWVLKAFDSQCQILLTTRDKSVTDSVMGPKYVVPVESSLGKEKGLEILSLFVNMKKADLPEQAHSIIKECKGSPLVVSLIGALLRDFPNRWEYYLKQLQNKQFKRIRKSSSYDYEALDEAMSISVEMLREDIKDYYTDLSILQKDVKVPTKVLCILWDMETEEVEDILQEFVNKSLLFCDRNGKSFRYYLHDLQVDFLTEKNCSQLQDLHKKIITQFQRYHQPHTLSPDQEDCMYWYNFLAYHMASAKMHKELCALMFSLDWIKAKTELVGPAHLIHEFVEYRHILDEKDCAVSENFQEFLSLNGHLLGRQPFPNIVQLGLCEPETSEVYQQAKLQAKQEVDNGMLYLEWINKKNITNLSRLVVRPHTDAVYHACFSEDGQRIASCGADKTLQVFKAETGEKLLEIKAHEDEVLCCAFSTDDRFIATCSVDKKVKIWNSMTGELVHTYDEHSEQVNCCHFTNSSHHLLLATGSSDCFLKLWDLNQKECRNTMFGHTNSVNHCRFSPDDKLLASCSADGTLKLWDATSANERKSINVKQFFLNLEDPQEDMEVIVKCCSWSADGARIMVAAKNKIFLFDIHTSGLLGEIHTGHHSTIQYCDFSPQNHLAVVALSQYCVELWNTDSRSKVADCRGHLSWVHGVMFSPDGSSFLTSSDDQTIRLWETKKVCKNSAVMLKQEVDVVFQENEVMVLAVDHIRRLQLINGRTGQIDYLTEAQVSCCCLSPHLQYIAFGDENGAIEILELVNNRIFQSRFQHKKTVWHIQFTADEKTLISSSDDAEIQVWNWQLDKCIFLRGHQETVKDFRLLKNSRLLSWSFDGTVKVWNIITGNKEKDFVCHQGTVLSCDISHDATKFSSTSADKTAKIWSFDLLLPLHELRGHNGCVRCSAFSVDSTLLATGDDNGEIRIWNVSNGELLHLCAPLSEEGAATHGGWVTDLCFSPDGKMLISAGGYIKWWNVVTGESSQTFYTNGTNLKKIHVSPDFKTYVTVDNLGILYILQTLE

Protein RecA = target: T7, Protein RecA (Mycobacterium tuberculosis, UniProt P9WHJ3); assay: Fluorescence Cell-Free Homogeneous Dose Retest to Identify Inhibitors of RecA-Intein Splicing Activity. [Related pubchem assays (depositor defined):AID2097, AID2223, AID489010, AID492950]; type: functional
T7 sequence (P9WHJ3 whole entry): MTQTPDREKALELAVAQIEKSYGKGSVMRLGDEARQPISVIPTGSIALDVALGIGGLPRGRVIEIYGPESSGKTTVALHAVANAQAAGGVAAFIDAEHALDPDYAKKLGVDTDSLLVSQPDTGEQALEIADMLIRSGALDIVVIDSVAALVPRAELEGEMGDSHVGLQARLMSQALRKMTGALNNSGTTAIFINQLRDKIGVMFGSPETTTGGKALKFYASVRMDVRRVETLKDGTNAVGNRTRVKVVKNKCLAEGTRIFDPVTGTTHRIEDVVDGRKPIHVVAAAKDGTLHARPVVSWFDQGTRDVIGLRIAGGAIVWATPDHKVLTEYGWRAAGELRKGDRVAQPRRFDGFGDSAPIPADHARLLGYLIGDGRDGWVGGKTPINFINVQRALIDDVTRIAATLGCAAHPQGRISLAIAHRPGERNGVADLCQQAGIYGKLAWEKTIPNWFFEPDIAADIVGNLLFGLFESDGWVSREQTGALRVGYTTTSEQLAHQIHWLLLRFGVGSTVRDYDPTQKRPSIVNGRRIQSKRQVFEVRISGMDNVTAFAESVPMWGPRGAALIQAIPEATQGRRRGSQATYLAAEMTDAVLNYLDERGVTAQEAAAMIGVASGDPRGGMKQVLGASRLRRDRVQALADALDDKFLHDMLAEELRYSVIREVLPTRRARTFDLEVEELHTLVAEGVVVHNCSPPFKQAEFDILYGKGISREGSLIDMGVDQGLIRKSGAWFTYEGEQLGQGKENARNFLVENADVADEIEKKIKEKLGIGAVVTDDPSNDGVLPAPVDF

[12] = target: T8, Polyadenylate-binding protein 1 (Homo sapiens, UniProt P11940); assay: MLLE binding blockers, Cy5 peptide tracer – biochemical, fluorescence polarization, Cy5-PAM2 peptide, secondary, miRNA deadenylation inhibitor project, dose response (AID 602260); type: functional; conditions: read-out: IC50_Mean
T8 sequence (P11940 whole entry): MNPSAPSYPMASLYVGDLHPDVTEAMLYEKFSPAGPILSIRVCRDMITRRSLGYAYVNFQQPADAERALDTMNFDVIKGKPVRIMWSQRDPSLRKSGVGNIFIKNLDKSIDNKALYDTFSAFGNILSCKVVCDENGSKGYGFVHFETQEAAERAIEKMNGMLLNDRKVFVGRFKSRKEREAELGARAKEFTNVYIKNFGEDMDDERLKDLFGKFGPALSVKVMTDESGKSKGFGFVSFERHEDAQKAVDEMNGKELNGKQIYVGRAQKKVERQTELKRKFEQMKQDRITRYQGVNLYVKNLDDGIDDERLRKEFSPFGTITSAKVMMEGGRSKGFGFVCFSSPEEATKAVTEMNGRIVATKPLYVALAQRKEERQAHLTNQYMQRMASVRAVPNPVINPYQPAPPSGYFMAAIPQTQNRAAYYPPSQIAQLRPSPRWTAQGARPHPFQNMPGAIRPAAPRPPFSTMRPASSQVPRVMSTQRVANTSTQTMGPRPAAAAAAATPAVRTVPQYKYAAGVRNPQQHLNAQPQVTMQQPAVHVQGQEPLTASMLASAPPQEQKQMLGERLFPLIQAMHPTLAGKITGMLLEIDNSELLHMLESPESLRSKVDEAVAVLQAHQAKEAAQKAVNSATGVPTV

[13] = target: T6, Apoptotic protease-activating factor 1; assay: SAR analysis of small molecule Activators of Apaf-1 in a Fluorescent assay.; type: functional; conditions: read-out: EC50_Mean
[14] = target: T8, Polyadenylate-binding protein 1; assay: MLLE domain peptide-binding blockers, IC50 – biochemical, fluorescence polarization, FITC-PAM2 peptide, dose response (AID 602259); type: functional; conditions: read-out: IC50_Mean
Caspase-6 = target: T9, Caspase-6 (Homo sapiens, UniProt P55212); assay: inhibition of CASP6 peptide cleavage – biochemical, VEID-R110 fluorescence, cherry-pick, dose response (AID 720632)
T9 sequence (P55212 whole entry): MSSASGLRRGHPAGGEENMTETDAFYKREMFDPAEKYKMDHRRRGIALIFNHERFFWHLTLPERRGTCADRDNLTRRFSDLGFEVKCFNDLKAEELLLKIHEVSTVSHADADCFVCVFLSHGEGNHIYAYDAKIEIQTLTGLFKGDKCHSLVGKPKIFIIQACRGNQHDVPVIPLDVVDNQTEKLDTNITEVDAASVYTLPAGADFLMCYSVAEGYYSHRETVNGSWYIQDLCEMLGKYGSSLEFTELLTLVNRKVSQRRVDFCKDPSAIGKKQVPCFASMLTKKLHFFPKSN

Caspase-7 = Caspase-7 (Homo sapiens, UniProt P55210); assay: caspase-7 enzyme inhibition, selectivity check – biochemical, DEVD-R110 fluorescence, cherry-pick, selectivity assay for caspase-6 inhibitor project, dose response (AID 743295); type: functional
[15] = target: Lysine-specific demethylase 4C (Homo sapiens, UniProt Q9H3R0); assay: inhibition of JMJD2C H3K9me3 demethylation – biochemical, DELFIA europium, cherry-picked samples, dose response (AID 488835); type: functional
Sequence of Lysine-specific demethylase 4C (Q9H3R0 whole entry): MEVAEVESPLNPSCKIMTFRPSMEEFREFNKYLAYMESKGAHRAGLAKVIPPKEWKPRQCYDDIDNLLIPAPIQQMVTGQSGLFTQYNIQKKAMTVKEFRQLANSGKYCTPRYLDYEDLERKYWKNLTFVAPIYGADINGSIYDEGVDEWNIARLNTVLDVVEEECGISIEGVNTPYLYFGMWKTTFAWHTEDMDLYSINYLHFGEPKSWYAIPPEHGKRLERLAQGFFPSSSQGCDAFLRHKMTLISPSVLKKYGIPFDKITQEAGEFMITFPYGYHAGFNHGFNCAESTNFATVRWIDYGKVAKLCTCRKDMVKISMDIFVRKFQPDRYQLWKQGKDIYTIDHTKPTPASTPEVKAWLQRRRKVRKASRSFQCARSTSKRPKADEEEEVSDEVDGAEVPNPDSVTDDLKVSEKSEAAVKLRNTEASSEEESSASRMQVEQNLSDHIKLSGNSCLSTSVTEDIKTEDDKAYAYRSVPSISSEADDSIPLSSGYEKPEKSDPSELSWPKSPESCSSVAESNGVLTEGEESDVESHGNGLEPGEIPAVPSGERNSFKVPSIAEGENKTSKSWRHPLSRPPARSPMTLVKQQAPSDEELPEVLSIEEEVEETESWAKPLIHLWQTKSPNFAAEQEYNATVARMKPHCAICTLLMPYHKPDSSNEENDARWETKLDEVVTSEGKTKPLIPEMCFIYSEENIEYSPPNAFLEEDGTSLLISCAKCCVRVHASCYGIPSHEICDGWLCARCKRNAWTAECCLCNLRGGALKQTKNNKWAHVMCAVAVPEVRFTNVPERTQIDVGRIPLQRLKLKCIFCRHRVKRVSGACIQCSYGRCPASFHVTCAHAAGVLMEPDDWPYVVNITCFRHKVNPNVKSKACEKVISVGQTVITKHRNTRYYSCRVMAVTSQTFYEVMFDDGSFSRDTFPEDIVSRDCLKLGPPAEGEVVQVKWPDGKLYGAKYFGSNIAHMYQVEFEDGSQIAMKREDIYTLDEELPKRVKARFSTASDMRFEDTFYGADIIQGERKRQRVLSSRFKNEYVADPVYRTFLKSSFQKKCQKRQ

[16] = restored growth of temperature-sensitive Burl-1 yeast – whole organism, S. cerevisiae, Burl-1 ts mutant, luminescence, counter-screen for SUMOylation pathway inhibitor project, dose response (AID 463199); type: functional
Cytochrome P450 2C19 = Cytochrome P450 2C19 (Homo sapiens, UniProt P33261); assay: Cytochrome panel assay with activity outcomes. Panel member name: p450-cyp2c19 Compounds with AC50 equal or less than 10 uM are considered active; type: functional
Sequence of Cytochrome P450 2C19 (P33261 whole entry): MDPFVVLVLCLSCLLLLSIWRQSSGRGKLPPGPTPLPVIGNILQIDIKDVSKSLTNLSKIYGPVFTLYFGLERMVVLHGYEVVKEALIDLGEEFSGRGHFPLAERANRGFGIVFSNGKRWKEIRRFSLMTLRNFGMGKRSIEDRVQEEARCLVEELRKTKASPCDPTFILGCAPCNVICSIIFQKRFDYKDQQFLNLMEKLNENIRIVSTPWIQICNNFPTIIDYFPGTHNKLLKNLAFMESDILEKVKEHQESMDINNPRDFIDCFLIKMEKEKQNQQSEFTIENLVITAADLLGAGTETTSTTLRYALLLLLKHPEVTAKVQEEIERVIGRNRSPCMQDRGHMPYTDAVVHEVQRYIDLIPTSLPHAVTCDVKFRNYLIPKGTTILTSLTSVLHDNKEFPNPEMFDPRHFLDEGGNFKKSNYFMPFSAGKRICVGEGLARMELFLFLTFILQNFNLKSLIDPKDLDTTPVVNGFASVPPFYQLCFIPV

Cytochrome P450 2D6 = Cytochrome P450 2D6 (Homo sapiens, UniProt P10635);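 also: CYP2D6 member of a cytochrome P450 panel assay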
Cytochrome P450 1A2 = target: T10, Cytochrome P450 1A2 (Homo sapiens, UniProt P05177);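 also: PubChem cytochrome P450 panel assay, CYP1A2 panel member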
T10 sequence (P05177 whole entry): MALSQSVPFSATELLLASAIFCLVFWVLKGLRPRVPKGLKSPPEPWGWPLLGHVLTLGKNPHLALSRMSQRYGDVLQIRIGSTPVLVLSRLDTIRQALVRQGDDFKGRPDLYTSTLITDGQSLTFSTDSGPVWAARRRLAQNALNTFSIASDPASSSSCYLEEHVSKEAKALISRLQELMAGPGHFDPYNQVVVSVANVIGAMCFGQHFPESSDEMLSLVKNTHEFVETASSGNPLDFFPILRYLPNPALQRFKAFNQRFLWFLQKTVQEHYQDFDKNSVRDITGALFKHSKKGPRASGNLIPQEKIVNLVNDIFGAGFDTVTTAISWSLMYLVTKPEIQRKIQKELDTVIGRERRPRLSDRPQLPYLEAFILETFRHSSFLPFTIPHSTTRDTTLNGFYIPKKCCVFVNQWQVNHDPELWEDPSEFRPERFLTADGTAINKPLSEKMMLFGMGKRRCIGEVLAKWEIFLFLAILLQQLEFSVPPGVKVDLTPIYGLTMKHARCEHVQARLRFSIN
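For EC50 Mean in this document: caspase-3 cleavage of fluorogenic Rh110 DEVD substrate downstream of apoptosome activation.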

T1 sequence (P51452 whole entry): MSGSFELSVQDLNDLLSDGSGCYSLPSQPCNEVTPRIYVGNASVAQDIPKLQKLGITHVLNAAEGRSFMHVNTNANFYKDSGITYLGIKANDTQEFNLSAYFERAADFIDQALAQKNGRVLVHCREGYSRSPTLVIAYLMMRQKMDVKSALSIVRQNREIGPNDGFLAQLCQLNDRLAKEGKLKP

Compound: O=C(O)CSc1cc(C(=O)c2ccccc2O)cn2c(=O)c3c(-c4ccccc4)csc3nc12
- IC50 [1]: 1.93 µM (active)
- IC50 [2]: 14.6 µM (active)
- IC50 [3]: 12.3 µM (active)
- CC50 (Vero): 38.8 µM (active)
- IC50 [4]: 13.2 µM (active)
- IC50 [5]: 7.1 µM (active)
- IC50 [6]: 28.4 µM (active)
- IC50 (Fatty acid synthase [7]): 4.85 µM (active)
- IC50 (Fatty acid synthase [8]): 4.3 µM (active)

Compound: CC(CNc1ccccc1O)C(=O)O (stereo not drawn)
- IC50 [9]: > 80 µM (inactive)
- AC50 [10]: 28.7 µM (active)
- EC50 [11]: 14 µM (active)
- EC50 (Protein RecA): 7.79 µM (active)
- IC50 [12]: > 66 µM (inactive)
- EC50 [13]: > 100 µM (inactive)
- IC50 [14]: > 66 µM (inactive)
- AC50 (Caspase-6): 3.52 µM (active)
- AC50 (Caspase-7): > 70 µM (inactive)

Compound: CCCn1c(SCC(=O)NNC(=O)c2ccc(C)cc2)nnc1C(C)C
- AC50 [15]: 9.91 µM (active)

Compound: CCOC(=O)c1c(CN2CCCCC2)n(C)c2cc(Br)c(O)c(CN(C)C)c12
- AC50 [16]: 52.5 µM (active)

Compound: CN(C)CCN(c1ccccn1)c1ccccn1
- AC50 (Cytochrome P450 2C19): inconclusive
- AC50 (Cytochrome P450 2D6): 3.98 µM (inconclusive)
- AC50 (Cytochrome P450 1A2): inconclusive
